The target of series [1] is Metabotropic glutamate receptor 5 (Homo sapiens, UniProt P41594). Put plainly: Inhibition of glutamate-induced calcium influx in human mGluR5d by FLIPR. The class given is functional.
In series [2] the target is Metabotropic glutamate receptor 5 (Rattus norvegicus, UniProt P31424). The series is described as follows: Displacement of [3H]MPEP from mGluR5d in rat brain membrane. The class given is cell membranes. For orientation: In a radioligand displacement assay an active substance lowers the binding of a labelled ligand.
Sequence of Metabotropic glutamate receptor 5 (Rattus norvegicus, UniProt P31424) (P31424 whole entry): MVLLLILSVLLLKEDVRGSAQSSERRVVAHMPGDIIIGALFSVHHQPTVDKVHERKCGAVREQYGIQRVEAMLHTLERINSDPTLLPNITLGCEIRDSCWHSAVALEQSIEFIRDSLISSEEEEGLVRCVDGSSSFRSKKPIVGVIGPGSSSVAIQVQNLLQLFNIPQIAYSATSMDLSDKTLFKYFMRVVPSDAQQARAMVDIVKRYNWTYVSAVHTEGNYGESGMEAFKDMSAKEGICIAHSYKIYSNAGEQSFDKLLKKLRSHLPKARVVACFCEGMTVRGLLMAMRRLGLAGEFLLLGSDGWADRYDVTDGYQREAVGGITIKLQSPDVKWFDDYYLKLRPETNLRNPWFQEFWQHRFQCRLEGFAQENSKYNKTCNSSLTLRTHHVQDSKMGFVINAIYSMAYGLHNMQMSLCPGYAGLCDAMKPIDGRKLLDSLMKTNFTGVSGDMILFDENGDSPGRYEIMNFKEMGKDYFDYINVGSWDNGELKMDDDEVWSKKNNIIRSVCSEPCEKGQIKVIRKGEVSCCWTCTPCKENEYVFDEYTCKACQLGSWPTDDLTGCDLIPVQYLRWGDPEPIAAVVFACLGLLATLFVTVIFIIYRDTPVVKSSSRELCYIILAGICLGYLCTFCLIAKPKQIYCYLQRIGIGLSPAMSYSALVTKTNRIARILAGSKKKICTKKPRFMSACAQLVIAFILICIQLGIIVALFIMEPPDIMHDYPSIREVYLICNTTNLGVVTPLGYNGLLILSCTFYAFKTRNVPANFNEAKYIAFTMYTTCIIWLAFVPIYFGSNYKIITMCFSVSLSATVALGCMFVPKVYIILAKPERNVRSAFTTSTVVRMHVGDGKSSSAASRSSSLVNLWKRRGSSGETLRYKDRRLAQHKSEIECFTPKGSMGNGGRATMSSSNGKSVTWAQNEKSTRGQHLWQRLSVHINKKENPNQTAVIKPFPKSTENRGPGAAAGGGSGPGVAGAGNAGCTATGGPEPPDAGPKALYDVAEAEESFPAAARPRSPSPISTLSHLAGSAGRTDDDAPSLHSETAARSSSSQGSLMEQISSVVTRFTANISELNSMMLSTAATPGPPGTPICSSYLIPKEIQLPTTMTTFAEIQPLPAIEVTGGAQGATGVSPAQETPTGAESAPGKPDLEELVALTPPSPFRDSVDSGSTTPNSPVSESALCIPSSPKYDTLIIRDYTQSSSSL
The species entered for series [3] is Rattus norvegicus. Put plainly: Clearance in rat. The conditions noted are these: in vivo. The series is classed as ADME, organism-based.
Series [4] is filed under the species Homo sapiens. The series is described as follows: Clearance in human. The series is classed as ADME, organism-based. The conditions noted are these: in vivo.

Results on 31 compounds are retold here after ChEMBL document CHEMBL1138162, “Phenyl ureas of creatinine as mGluR5 antagonists. A structure-activity relationship study of fenobam analogues” (Bioorg Med Chem Lett, 2006).

Sequence of Metabotropic glutamate receptor 5 (Homo sapiens, UniProt P41594) (P41594 whole entry): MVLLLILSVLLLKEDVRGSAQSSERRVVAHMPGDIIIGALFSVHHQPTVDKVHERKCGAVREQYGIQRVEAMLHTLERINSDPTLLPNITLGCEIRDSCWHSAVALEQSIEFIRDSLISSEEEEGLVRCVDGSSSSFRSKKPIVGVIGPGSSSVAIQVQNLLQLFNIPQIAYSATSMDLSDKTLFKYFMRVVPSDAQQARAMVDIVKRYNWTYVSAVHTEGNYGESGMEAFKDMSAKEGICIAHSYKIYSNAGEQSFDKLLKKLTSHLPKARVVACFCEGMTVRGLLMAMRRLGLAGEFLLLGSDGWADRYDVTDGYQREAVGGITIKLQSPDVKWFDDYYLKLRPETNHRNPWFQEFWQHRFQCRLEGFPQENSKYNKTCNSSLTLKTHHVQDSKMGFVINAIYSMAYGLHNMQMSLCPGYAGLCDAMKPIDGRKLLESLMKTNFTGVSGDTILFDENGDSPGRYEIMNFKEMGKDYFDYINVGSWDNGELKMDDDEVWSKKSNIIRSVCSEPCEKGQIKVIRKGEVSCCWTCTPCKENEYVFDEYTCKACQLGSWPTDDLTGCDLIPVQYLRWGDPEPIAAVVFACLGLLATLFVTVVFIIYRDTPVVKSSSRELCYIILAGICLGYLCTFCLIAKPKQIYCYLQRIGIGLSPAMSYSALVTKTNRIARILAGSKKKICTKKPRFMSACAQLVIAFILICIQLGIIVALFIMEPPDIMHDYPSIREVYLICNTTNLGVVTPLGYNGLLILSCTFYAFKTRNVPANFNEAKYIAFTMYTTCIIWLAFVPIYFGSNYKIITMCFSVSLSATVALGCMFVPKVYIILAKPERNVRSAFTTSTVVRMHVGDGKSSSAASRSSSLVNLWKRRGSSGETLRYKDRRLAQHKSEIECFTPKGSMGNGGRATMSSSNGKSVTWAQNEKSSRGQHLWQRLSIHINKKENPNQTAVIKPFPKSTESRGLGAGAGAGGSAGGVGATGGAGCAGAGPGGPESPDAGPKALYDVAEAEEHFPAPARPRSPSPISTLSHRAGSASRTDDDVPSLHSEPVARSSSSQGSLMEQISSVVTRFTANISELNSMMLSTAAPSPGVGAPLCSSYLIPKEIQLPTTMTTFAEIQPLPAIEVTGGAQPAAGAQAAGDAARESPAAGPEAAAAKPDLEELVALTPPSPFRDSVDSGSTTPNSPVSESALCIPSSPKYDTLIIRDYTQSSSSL

Regarding `CN1CC(=O)N=C1NC(=O)Cc1cccc(Cl)c1`, the 50% inhibitory concentration (IC50) – broadly, the point on the concentration scale where inhibition reaches its midpoint – in series [1] was “Not Active”.
On to `CN1CC(=O)N=C1NC(=O)Nc1cccc(C#N)c1`, for which the IC50 in series [1] (read-out: IC50) turned out to be 3.9 µM; in series [2], 3.4 µM.
On to `CCCCCCNC(=O)NC1=NC(=O)CN1C`, for which the IC50 in series [1] (read-out: IC50) was > 10 µM.
On the same count and under the same terms, as for `CN1CC(=O)N=C1NC(=O)Nc1cc(Cl)cc(Cl)c1`, the figure is > 10 µM.
On the same count and under the same terms, to `CN1CC(=O)N=C1NC(=O)c1cccc(Cl)c1` belongs 2.3 µM.
For the compound `Cc1ccc(NC(=O)NC2=NC(=O)C3CCCN23)cc1Cl` (stereo not given), in series [1] (read-out: IC50), the IC50 is > 10 µM.
Consider `CCN1CC(=O)N=C1NC(=O)Nc1cccc(Cl)c1`, for which the IC50 in series [1] (read-out: IC50) came to 0.25 µM; in series [2], 0.18 µM.
In the case of `CN1CC(=O)N=C1NC(=O)Nc1cccs1`, in series [1] (read-out: IC50), the IC50 was determined as 4.9 µM.
In the case of `Cc1ccc(NC(=O)NC2=NC(=O)CN2C)nc1`, the IC50 in series [1] (read-out: IC50) stood at 3.1 µM.
Same read-out and setting: as for `COC(=O)c1cccc(NC(=O)NC2=NC(=O)CN2C)c1`, the figure is > 10 µM.
For the compound `Cc1cccc(NC(=O)NC2=NC(=O)C(c3ccccc3)N2C)c1` (stereo not given), the IC50 is 1.4 µM in series [1] (read-out: IC50) and > 10 µM in series [2].
As to `Cc1cccc(NC(=O)NC2=NC(=O)CN2C)c1`, in series [1] (read-out: IC50), the IC50 is 0.55 µM.
`O=C(NC1=NC(=O)C2CCCN12)Nc1ccc(Cl)cc1` (stereo not given): the IC50 in series [1] (read-out: IC50) is > 10 µM.
`Cc1ccc(C)c(NC(=O)NC2=NC(=O)C3CCCN23)c1` (stereo not given): the half-maximal inhibitory concentration (IC50) in series [1] (read-out: IC50) is > 10 µM.
As to `CCCCN1CC(=O)N=C1NC(=O)Nc1cccc(Cl)c1`, the figures for the IC50 in series [1] (read-out: IC50) and in series [2] were 0.68 µM and 1.3 µM, respectively.
Consider `CN1CC(=O)N=C1NC(=O)Nc1cccc(Br)c1`, for which, in series [1] (read-out: IC50), the IC50 turned out to be 0.38 µM.
Take `CCN1C(NC(=O)Nc2cccc(Cl)c2)=NC(=O)C1C` (stereo not given): the figures for the concentration for half-maximal inhibition (IC50) in series [1] (read-out: IC50) and in series [2] were 0.41 µM and 0.32 µM, respectively.
For the compound `Cc1ccccc1NC(=O)NC1=NC(=O)C2CCCN12` (stereo not given), the IC50 in series [1] (read-out: IC50) is > 10 µM.
For `CC1C(=O)N=C(NC(=O)Nc2cccc(Cl)c2)N1C` (stereo not given), the values for the IC50 in series [1] (read-out: IC50) and in series [2] were 0.49 µM and 1.3 µM, respectively.
On to `Cc1cccc(C)c1NC(=O)/N=C1\CCCN1C` [XILOBAM], for which the IC50 in series [1] (read-out: IC50) was > 10 µM.
On to `CN1C(=O)CN=C1NC(=O)Nc1cccc(Cl)c1`, for which the IC50 in series [1] (read-out: IC50) and in series [2] was > 10 µM each time.
Regarding `Cn1ccnc1NC(=O)Nc1cccc(Cl)c1`, the IC50 in series [1] (read-out: IC50) and in series [2] was > 10 µM throughout.
Regarding `CN1CCS/C1=N\C(=O)Nc1cccc(Cl)c1`, the IC50 worked out at 0.26 µM in series [1] (read-out: IC50) and 1.2 µM in series [2].
Consider `COc1cccc(NC(=O)NC2=NC(=O)CN2C)c1`, for which, in series [1] (read-out: IC50), the IC50 came to 2.8 µM.
For `CN1CC(=O)N/C1=N\C(=O)Nc1ccccc1`, in series [1] (read-out: IC50), the IC50 turned out to be 4.9 µM.
The same measure, in the same setting: to `Cc1cccc(NC(=O)NC2=NC(=O)C3CCCN23)c1C` (stereo not given) belongs > 10 µM; to `O=C(NC1=NC(=O)C2CCCN12)Nc1ccccc1` (stereo not given), 4.2 µM.
In the case of `CN1CCC/C1=N\C(=O)Nc1cccc(Cl)c1`, the figures for the IC50 in series [1] (read-out: IC50) and in series [2] were 0.62 µM and 2 µM, respectively.
Turning to `CN1CC(=O)N=C1NC(=O)Nc1cccc(Cl)c1` [FENOBAM ANHYDROUS], the CL in series [3] and in series [4] was 50 µL/min/mg each time. Further, the values for the IC50 in series [1] (read-out: IC50) and in series [2] were 0.33 µM and 0.46 µM, respectively.
In the case of `O=C(NC1=NC(=O)C2CCCN12)Nc1cccc(Cl)c1` (stereo not given), the half-maximal inhibitory concentration (IC50) is 0.8 µM in series [1] (read-out: IC50) and 1.6 µM in series [2].
Consider `Cc1cccnc1NC(=O)NC1=NC(=O)CN1C`, for which the IC50 in series [1] (read-out: IC50) was found to be 1.9 µM.
